According to ChEMBL document CHEMBL3046164, “A facile synthesis of some 3-cyano-1,4,6-trisubstituted-2(1H)-pyridinones and their biological evaluation as anticancer agents” (2011):

Columns and labels:
Type in all cases: functional
A498 [1] = experiment: Cytotoxicity against Homo sapiens (human) A498 cells after 48 hr by SRB assay; conditions: A498, 48 h
HL-60(TB) [2] = experiment: Growth inhibition of Homo sapiens (human) HL-60(TB) cells at 10 uM after 48 hr by SRB assay; conditions: HL-60, 48 h, read-out: GI
A498 [3] = experiment: Growth inhibition of Homo sapiens (human) A498 cells at 10 uM after 48 hr by SRB assay; conditions: A498, 48 h, read-out: GI
CCRF-CEM [4] = experiment: Growth inhibition of Homo sapiens (human) CCRF-CEM cells at 10 uM after 48 hr by SRB assay; conditions: read-out: GI
MDA-MB-435 = experiment: Growth inhibition of Homo sapiens (human) MDA-MB-435 cells at 10 uM after 48 hr by SRB assay; conditions: MDA-MB-435, 48 h, read-out: GI
BT-549 = experiment: Cytotoxicity against Homo sapiens (human) BT549 cells after 48 hr by SRB assay; conditions: BT-549, 48 h
UO-31 = experiment: Cytotoxicity against Homo sapiens (human) UO31 cells after 48 hr by SRB assay; conditions: UO-31, 48 h
U-251 = experiment: Growth inhibition of Homo sapiens (human) U251 cells at 10 uM after 48 hr by SRB assay; conditions: U-251, 48 h, read-out: GI
HOP-62 [5] = experiment: Growth inhibition of Homo sapiens (human) HOP62 cells at 10 uM after 48 hr by SRB assay; conditions: HOP-62, 48 h, read-out: GI
T47D = experiment: Cytotoxicity against Homo sapiens (human) T47D cells after 48 hr by SRB assay
SF-295 = experiment: Growth inhibition of Homo sapiens (human) SF295 cells at 10 uM after 48 hr by SRB assay; conditions: SF-295, 48 h, read-out: GI
MDA-MB-231 = experiment: Cytotoxicity against Homo sapiens (human) MDA-MB-231 cells after 48 hr by SRB assay; conditions: MDA-MB-231, 48 h
A549 = experiment: Growth inhibition of Homo sapiens (human) A549 cells at 10 uM after 48 hr by SRB assay; conditions: A549, 48 h, read-out: GI
HOP-92 [6] = experiment: Growth inhibition of Homo sapiens (human) HOP92 cells at 10 uM after 48 hr by SRB assay; conditions: HOP-92, 48 h, read-out: GI
OVCAR-4 = experiment: Cytotoxicity against Homo sapiens (human) OVCAR4 cells after 48 hr by SRB assay; conditions: OVCAR-4, 48 h
IGROV-1 = experiment: Cytotoxicity against Homo sapiens (human) IGROV1 cells after 48 hr by SRB assay; conditions: IGROV-1, 48 h
UACC-62 = experiment: Cytotoxicity against Homo sapiens (human) UACC62 cells after 48 hr by SRB assay; conditions: UACC-62, 48 h
EKVX [7] = experiment: Growth inhibition of Homo sapiens (human) EKVX cells at 10 uM after 48 hr by SRB assay; conditions: read-out: GI
HOP-62 [8] = experiment: Cytotoxicity against Homo sapiens (human) HOP62 cells after 48 hr by SRB assay; conditions: HOP-62, 48 h
M14 = experiment: Growth inhibition of Homo sapiens (human) M14 cells at 10 uM after 48 hr by SRB assay; conditions: M14, 48 h, read-out: GI
NCI-H460 = experiment: Growth inhibition of Homo sapiens (human) NCI-H460 cells at 10 uM after 48 hr by SRB assay; conditions: NCI-H460, 48 h, read-out: GI
COLO 205 = experiment: Growth inhibition of Homo sapiens (human) COLO205 cells at 10 uM after 48 hr by SRB assay; conditions: COLO 205, 48 h, read-out: GI
EKVX [9] = experiment: Cytotoxicity against Homo sapiens (human) EKVX cells after 48 hr by SRB assay
HCC 2998 [10] = experiment: Growth inhibition of Homo sapiens (human) HCC2998 cells at 10 uM after 48 hr by SRB assay; conditions: HCC 2998, 48 h, read-out: GI
RPMI-8226 [11] = experiment: Growth inhibition of Homo sapiens (human) RPMI8226 cells at 10 uM after 48 hr by SRB assay; conditions: RPMI-8226, 48 h, read-out: GI
CAKI-1 = experiment: Growth inhibition of Homo sapiens (human) CAKI-1 cells at 10 uM after 48 hr by SRB assay; conditions: CAKI-1, 48 h, read-out: GI
K562 = experiment: Growth inhibition of Homo sapiens (human) K562 cells at 10 uM after 48 hr by SRB assay; conditions: K562, 48 h, read-out: GI
HOP-92 [12] = experiment: Cytotoxicity against Homo sapiens (human) HOP92 cells after 48 hr by SRB assay; conditions: HOP-92, 48 h
HCC 2998 [13] = experiment: Cytotoxicity against Homo sapiens (human) HCC2998 cells after 48 hr by SRB assay; conditions: HCC 2998, 48 h
SF-268 = experiment: Cytotoxicity against Homo sapiens (human) SF268 cells after 48 hr by SRB assay; conditions: SF-268, 48 h
SK-MEL-5 = experiment: Growth inhibition of Homo sapiens (human) SK-MEL-5 cells at 10 uM after 48 hr by SRB assay; conditions: SK-MEL-5, 48 h, read-out: GI
LOX IMVI = experiment: Growth inhibition of Homo sapiens (human) LOXIMVI cells at 10 uM after 48 hr by SRB assay; conditions: read-out: GI
RPMI-8226 [14] = experiment: Cytotoxicity against Homo sapiens (human) RPMI8226 cells after 48 hr by SRB assay; conditions: Homo sapiens, RPMI-8226, 48 h
HL-60(TB) [15] = experiment: Cytotoxicity against Homo sapiens (human) HL-60(TB) cells after 48 hr by SRB assay; conditions: HL-60, 48 h
786-0 = experiment: Growth inhibition of Homo sapiens (human) 786-0 cells at 10 uM after 48 hr by SRB assay; conditions: 786-0, 48 h, read-out: GI
OVCAR-3 = experiment: Cytotoxicity against Homo sapiens (human) OVCAR3 cells after 48 hr by SRB assay; conditions: OVCAR-3, 48 h
SNB-75 [16] = experiment: Cytotoxicity against Homo sapiens (human) SNB75 cells after 48 hr by SRB assay; conditions: SNB-75, 48 h
SNB-75 [17] = experiment: Growth inhibition of Homo sapiens (human) SNB75 cells at 10 uM after 48 hr by SRB assay; conditions: SNB-75, 48 h, read-out: GI
SF-539 = experiment: Cytotoxicity against Homo sapiens (human) SF539 cells after 48 hr by SRB assay; conditions: SF-539, 48 h
SR = experiment: Cytotoxicity against Homo sapiens (human) SR cells after 48 hr by SRB assay
CCRF-CEM [18] = experiment: Cytotoxicity against Homo sapiens (human) CCRF-CEM cells after 48 hr by SRB assay

Cn1cccc1-c1cc(-c2ccc(Br)cc2)n(C(=S)Nc2ccc(F)cc2)c(=O)c1C#N
GI50 (A498 [1]): 17.8 µM
inhibition of growth at 10 µM (HL-60(TB) [2]): 82.3%
inhibition of growth at 10 µM (A498 [3]): 27.6%
inhibition of growth at 10 µM (CCRF-CEM [4]): 48.3%
inhibition of growth at 10 µM (MDA-MB-435): 35.1%
GI50 (BT-549): > 100 µM
GI50 (UO-31): 13.8 µM
LC50 (UO-31): 54.9 µM
TGI (UO-31): 27.5 µM
inhibition of growth at 10 µM (U-251): 26.3%
inhibition of growth at 10 µM (HOP-62 [5]): 34.5%
GI50 (T47D): > 100 µM
inhibition of growth at 10 µM (SF-295): 40.2%
GI50 (MDA-MB-231): > 100 µM
inhibition of growth at 10 µM (A549): 47.8%
inhibition of growth at 10 µM (HOP-92 [6]): 39.6%
GI50 (OVCAR-4): > 100 µM
GI50 (IGROV-1): 22.9 µM
GI50 (UACC-62): 72.4 µM
inhibition of growth at 10 µM (EKVX [7]): 29.7%
GI50 (HOP-62 [8]): 37.1 µM
inhibition of growth at 10 µM (M14): 29.1%
inhibition of growth at 10 µM (NCI-H460): 31.6%
inhibition of growth at 10 µM (COLO 205): 45.6%
GI50 (EKVX [9]): 0.01 µM
TGI (EKVX [9]): 0.03 µM
inhibition of growth at 10 µM (HCC 2998 [10]): 27.6%
inhibition of growth at 10 µM (RPMI-8226 [11]): 59.2%
inhibition of growth at 10 µM (CAKI-1): 30.3%
inhibition of growth at 10 µM (K562): 60%
GI50 (HOP-92 [12]): > 100 µM
GI50 (HCC 2998 [13]): > 100 µM
GI50 (SF-268): 20.4 µM
inhibition of growth at 10 µM (SK-MEL-5): 33.5%
inhibition of growth at 10 µM (LOX IMVI): 23%
GI50 (RPMI-8226 [14]): > 100 µM
GI50 (HL-60(TB) [15]): 14.5 µM
inhibition of growth at 10 µM (786-0): 28.8%
GI50 (OVCAR-3): > 100 µM
GI50 (SNB-75 [16]): 38 µM
inhibition of growth at 10 µM (SNB-75 [17]): 42.7%
GI50 (SF-539): > 100 µM
GI50 (SR): > 100 µM
GI50 (CCRF-CEM [18]): > 100 µM
